Format in all cases: cell-based
Assay [1] relates to pHSL. Nature of the assay: Western blot of pHSL in adipocytes. The note with it: 3T3-L1 adipocytes, 5 μM and 50 μM peptide, 1 hour, Western blot with anti-pHSL antibody. On the procedure:
(§1) First, in order to differentiate pre-adipocytes into adipocytes, pre-adipocytes and 3T3-L1 cells purchased from the American Type Culture Collection (ATCC) were cultured in DMEM including 2% fetal bovine serum (FBS). In order to differentiate 3T3-L1 cells into adipocytes, the culture was dispensed into a 12-well plate at a density of 1×10^5 cells/well, and 2 days after the time-point of achieving the confluent growth (day 0), the culture medium was replaced with DMEM medium including 10% FBS, 10 μg/mL insulin, 0.5 mM isobutylmethylxanthine (IBMX)(Sigma, USA), and 1 μM dexamethasone (Sigma. USA), and cultured. After 2 days (day 2), the culture medium was replaced with DMEM medium including 10% FBS and 10 μg/mL insulin and cultured, and 3 days thereafter (day 5), the culture medium was replaced with a medium including only 10% FBS Two days thereafter (day 7), the cells were named 3T3-L1 adipocytes and cultured under the conditions of 37° C., 5% CO2 environment. […]
Specifically, the adipocytes differentiated in Preparation Example 1 were treated with 5 μM and 50 μM of the peptide of SEQ ID NO: 1, and after 1 hour, the cells were recovered and treated with a cell lysis buffer to obtain a lysate. Then, the protein was quantified and subjected to Western blotting using an anti-pHSL antibody (Cell Signaling Technology (CST), USA).

Assay [2] deals with Tbx1. As to the kind of experiment: RT-PCR of thermogenesis-related gene Tbx1 in adipocytes. Particulars: 3T3-L1 adipocytes, 5 μM and 50 μM peptide, 72 hours, GAPDH internal control. On the procedure: (§2) First, in order to differentiate pre-adipocytes into adipocytes, pre-adipocytes and 3T3-L1 cells purchased from the American Type Culture Collection (ATCC) were cultured in DMEM including 2% fetal bovine serum (FBS). In order to differentiate 3T3-L1 cells into adipocytes, the culture was dispensed into a 12-well plate at a density of 1×10^5 cells/well, and 2 days after the time-point of achieving the confluent growth (day 0), the culture medium was replaced with DMEM medium including 10% FBS, 10 μg/mL insulin, 0.5 mM isobutylmethylxanthine (IBMX)(Sigma, USA), and 1 μM dexamethasone (Sigma. USA), and cultured. After 2 days (day 2), the culture medium was replaced with DMEM medium including 10% FBS and 10 μg/mL insulin and cultured, and 3 days thereafter (day 5), the culture medium was replaced with a medium including only 10% FBS Two days thereafter (day 7), the cells were named 3T3-L1 adipocytes and cultured under the conditions of 37° C., 5% CO2 environment. The adipocytes which were induced to differentiate for 10 days were used in subsequent experiments.
(§3) In order to confirm whether the peptide of the present invention has the effect of preventing or treating obesity, the levels of mRNA expression of PGC1α1, Tbx1, FGF21, and UCP1, which are thermogenesis-related genes in brown adipocytes, were examined. […]

Assay [3] deals with FGF21. Nature of the assay: RT-PCR of thermogenesis-related gene FGF21 in adipocytes. The note with it: 3T3-L1 adipocytes, 5 μM and 50 μM peptide, 72 hours, GAPDH internal control. On the procedure:
as §2, §3

Assay [4] deals with PGC1α. As to the kind of experiment: RT-PCR of thermogenesis-related gene PGC1α in adipocytes. Particulars: 3T3-L1 adipocytes, 5 μM and 50 μM peptide, 72 hours, GAPDH internal control. On the procedure:
as §2, §3

Assay [5] deals with UCP1. As to the kind of experiment: Western blot of thermogenesis-related protein UCP1 in adipocytes. Particulars: 3T3-L1 adipocytes, 5 μM and 50 μM peptide, 24 hours. On the procedure:
as §1
(§4) Specifically, the adipocytes obtained in Preparation Example 1 were treated with 5 μM and 50 μM of the peptide of SEQ ID NO: 1, respectively. […] Then, the protein was quantified and subjected to Western blotting was performed using an anti-PRDM16 antibody (Cell signaling technology (CST), USA) and an anti-UCP1 antibody (Abcam, England).
Background: A western blot detects proteins with antibodies after separation by electrophoresis.

In assay [6] the test system is HSL. Nature of the assay: RT-PCR of lipolysis-related gene HSL in adipocytes. The note with it: 3T3-L1 adipocytes, 5 μM and 50 μM peptide, 72 hours, GAPDH internal control. On the procedure: as §2
(§5) In adipocytes, in order to confirm whether the peptide of the present invention has the effect of activating the lipolysis-promoting cell signaling pathway. mRNA expression levels of HSL, ATGL, and perilipin1 genes associated with lipolysis promotion were examined. […]

For assay [7], the system named is ATGL. As to the kind of experiment: RT-PCR of lipolysis-related gene ATGL in adipocytes. The note with it: 3T3-L1 adipocytes, 5 μM and 50 μM peptide, 72 hours, GAPDH internal control. On the procedure:
as §2, §5

In assay [8] the test system is UCP1. As to the kind of experiment: RT-PCR of thermogenesis-related gene UCP1 in adipocytes. The note with it: 3T3-L1 adipocytes, 5 μM and 50 μM peptide, 72 hours, GAPDH internal control. On the procedure:
as §2, §3

The test system of assay [9] is perilipin1. As to the kind of experiment: RT-PCR of lipolysis-related gene perilipin1 in adipocytes. The note with it: 3T3-L1 adipocytes, 5 μM and 50 μM peptide, 72 hours, GAPDH internal control. On the procedure: as §2, §5
Assay [10] relates to 3T3-L1 adipocytes. Nature of the assay: Glycerol colorimetric assay, free glycerol released from adipocytes. Particulars: 5 μM and 50 μM peptide, 48 hours, supernatant. On the procedure:
as §1
Specifically, adipocytes differentiated in Preparation Example 1 were treated with the peptide of SEQ ID NO: 1 at concentrations of 5 μM and 50 μM, and treated with 20 nM of TNFα, as a positive control, followed by culturing for 48 hours. After obtaining the supernatant, the amount of glycerol was measured using a glycerol colorimetric assay kit (Cayman Chemical, USA).

Assay [11] relates to PRDM16. As to the kind of experiment: Western blot of thermogenesis-related protein PRDM16 in adipocytes. The note with it: 3T3-L1 adipocytes, 5 μM and 50 μM peptide, 24 hours. On the procedure:
as §1, §4

Turning to DYNMKWIHVY [SEQ ID NO: 1], the “phosphorylation of HSL protein” value in assay [1] is “increased”. Besides, the “mRNA expression of Tbx1 gene” value in [2] is “increased”. In assay [3], the “mRNA expression of FGF21 gene” value is reported as “increased”. The “mRNA expression of PGC1α gene” value in assay [4] is “increased”. Besides, in assay [5], the “expression of UCP1 protein” value is given as “increased”. Besides, in assay [6], the “mRNA expression of HSL gene” value was “increased”. Further, in assay [7], the “mRNA expression of ATGL gene” value is “increased”. For the same sequence, the “mRNA expression of UCP1 gene” value in assay [8] is “increased”. The “mRNA expression of perilipin1 gene” value in [9] is “increased”. Also, the “amount of glycerol released” value in [10] is reported as “increased in a concentration-dependent manner”. In addition, in assay [11], the “expression of PRDM16 protein” value is “increased”.

The values are drawn from patent US20240400615A1, “PEPTIDE HAVING ANTI-OBESITY ACTIVITY AND USES THEREOF” (CAREGEN CO., LTD., priority 2021, published 2024).
